Results as given in ChEMBL document CHEMBL3091433, “Structure-based design of substituted hexafluoroisopropanol-arylsulfonamides as modulators of RORc” (Bioorg Med Chem Lett, 2013).

Assays:
[1] = biological target: T1, Nuclear receptor ROR-gamma (Homo sapiens, UniProt P51449)
T1 sequence (P51449 whole entry): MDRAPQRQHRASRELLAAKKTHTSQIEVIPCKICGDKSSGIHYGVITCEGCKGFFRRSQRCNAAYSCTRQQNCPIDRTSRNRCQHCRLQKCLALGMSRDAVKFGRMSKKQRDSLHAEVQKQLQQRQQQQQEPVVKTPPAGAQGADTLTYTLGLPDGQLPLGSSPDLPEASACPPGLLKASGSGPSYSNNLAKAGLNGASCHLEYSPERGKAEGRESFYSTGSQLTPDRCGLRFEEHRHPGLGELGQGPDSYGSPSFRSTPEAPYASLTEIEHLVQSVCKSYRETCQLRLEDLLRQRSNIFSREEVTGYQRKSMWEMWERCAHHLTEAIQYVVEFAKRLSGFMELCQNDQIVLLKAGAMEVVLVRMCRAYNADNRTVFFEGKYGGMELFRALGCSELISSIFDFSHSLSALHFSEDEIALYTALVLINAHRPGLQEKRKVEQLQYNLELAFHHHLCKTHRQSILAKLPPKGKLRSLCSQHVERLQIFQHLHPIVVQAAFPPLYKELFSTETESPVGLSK
Description: Inverse agonist activity at N-terminal 6xHis-tagged human RORc ligand binding domain (241 to 486) expressed in bacterial expression system assessed as inhibition of SRC1 co-activator peptide recruitment after 3 hrs by TR-FRET analysis

[2] = biological target: T1, Nuclear receptor ROR-gamma; remark: listed apart in the source
Description: Displacement of [3H2]-25-hydroxycholesterol from N-terminal 6xHis-tagged human RORc ligand binding domain (241 to 486) expressed in bacterial expression system after 3 hrs by scintillation counting analysis

[3] = tested on: PBMC; assay: Inhibition of IFNgamma production in human PBMC after 48 hrs by Sandwich ELISA
[4] = tested on: PBMC; assay: Antiinflammatory activity in human PBMC assessed as inhibition of IL-17 production after 48 hrs by Sandwich ELISA relative to control; format: functional
[5] = tested on: PBMC; assay: Cytotoxicity against human PBMC assessed as effect on cell physiology after 48 hrs by CellTiter-Glo assay
[6] = tested on: PBMC; assay: cells; settings: Homo sapiens, 48 h

Row | SMILES | EC50 [1] [nM] | IC50 [2] [nM] | also measured
1 | N#Cc1cccc(S(=O)(=O)N(CC(F)(F)F)c2ccc(C(O)(C(F)(F)F)C(F)(F)F)cc2)c1 | 100 | 190 | –
2 | Cc1ccc(S(=O)(=O)N(CC(F)(F)F)c2ccc(C(O)(C(F)(F)F)C(F)(F)F)cc2)cc1 | 20 | 51 | –
3 | O=S(=O)(C1CC1)N(CC(F)(F)F)c1ccc(C(O)(C(F)(F)F)C(F)(F)F)cc1 | – | 5000 | –
4 | CS(=O)(=O)CCN(c1ccc(C(O)(C(F)(F)F)C(F)(F)F)cc1)S(=O)(=O)c1ccccc1 | > 10000 | > 10000 | –
5 | O=C(O)CCN(c1ccc(C(O)(C(F)(F)F)C(F)(F)F)cc1)S(=O)(=O)c1ccccc1 | > 10000 | > 10000 | –
6 | NC(=O)c1ccc(N(CC(F)(F)F)S(=O)(=O)c2ccccc2)cc1 | > 10000 | > 10000 | –
7 | CCN(c1cccc(C(O)(C(F)(F)F)C(F)(F)F)c1)S(=O)(=O)c1ccccc1 | 900 | 329 | –
8 | O=C(c1ccccc1)N(CC(F)(F)F)c1ccc(C(O)(C(F)(F)F)C(F)(F)F)cc1 | 4000 | 2000 | –
9 | O=C(Nc1ccc(C(O)(C(F)(F)F)C(F)(F)F)cc1)c1ccccc1 | > 10000 | > 10000 | –
10 | O=C(Nc1ccc(C(O)(C(F)(F)F)C(F)(F)F)cc1)c1ccc(C(F)(F)F)cc1 | > 10000 | > 10000 | –
11 | CC(=O)Nc1nc(C)c(S(=O)(=O)Nc2ccc(C(O)(C(F)(F)F)C(F)(F)F)cc2)s1 | 911 | 2000 | –
12 | O=S(=O)(c1ccccc1)N(CC(F)(F)F)c1ccc(CO)cc1 | > 10000 | > 10000 | –
13 | O=S(=O)(c1ccccc1)N(CC(F)(F)F)c1ccc(C(O)(C(F)(F)F)C(F)(F)F)cc1 [T091317] | – | – | EC50 [3]: > 20000 nM; Imax [4]: 81%; EC50 [5]: > 20000 nM; EC50 [6]: 3000 nM

Second part, led by results:

Row | EC50 [1] [nM] | IC50 [2] [nM] | SMILES | also measured
14 | 5000 | 883 | O=S(=O)(c1ccccc1)N1CCc2cc(C(O)(C(F)(F)F)C(F)(F)F)ccc21 | –
15 | 920 | 520 | N#Cc1ccccc1S(=O)(=O)N(CC(F)(F)F)c1ccc(C(O)(C(F)(F)F)C(F)(F)F)cc1 | –
16 | 1000 | 748 | O=S(=O)(c1cccnc1)N(CC(F)(F)F)c1ccc(C(O)(C(F)(F)F)C(F)(F)F)cc1 | –
17 | > 2000 | 520 | O=S(=O)(Cc1ccccc1)N(CC(F)(F)F)c1ccc(C(O)(C(F)(F)F)C(F)(F)F)cc1 | –
18 | 1000 | 4000 | O=S(=O)(c1ccccc1)N(CCO)c1ccc(C(O)(C(F)(F)F)C(F)(F)F)cc1 | –
19 | > 10000 | 3000 | COCCN(c1ccc(C(O)(C(F)(F)F)C(F)(F)F)cc1)S(=O)(=O)c1ccccc1 | –
20 | > 10000 | > 10000 | CC(=O)NCCN(c1ccc(C(O)(C(F)(F)F)C(F)(F)F)cc1)S(=O)(=O)c1ccccc1 | –
21 | 4000 | 519 | O=S(=O)(c1ccccc1)N(CCC(F)(F)F)c1ccc(C(O)(C(F)(F)F)C(F)(F)F)cc1 | –
22 | 8000 | 467 | O=S(=O)(c1ccccc1)N(Cc1ccccc1)c1ccc(C(O)(C(F)(F)F)C(F)(F)F)cc1 | –
23 | 9000 | 900 | COC(c1ccc(N(CC(F)(F)F)S(=O)(=O)c2ccccc2)cc1)(C(F)(F)F)C(F)(F)F | –
24 | > 10000 | > 10000 | O=C(O)c1ccc(N(CC(F)(F)F)S(=O)(=O)c2ccccc2)cc1 | –
25 | > 10000 | 9000 | NS(=O)(=O)c1ccc(N(CC(F)(F)F)S(=O)(=O)c2ccccc2)cc1 | –
26 | – | > 10000 | O=S(=O)(Nc1ccc(C(O)(C(F)(F)F)C(F)(F)F)cc1)c1ccccc1 | –
